According to ChEMBL document CHEMBL1158647, “Synthesis and Pharmacology of Mangostin-3,6-di-O-glucoside” (1979):
Activity calls are given as the source filed them. No cut-off for these calls is given here.

Columns and labels:
[1] = system: Canis familiaris; test: Increase in respiration in anesthetized Mongrel dog at 25 mg/kg, iv; type: functional, organism-based; set-up: dose 25 mg/kg; settings: Canis lupus familiaris
[2] = system: Canis familiaris; test: Increase in carotid blood pressure in anesthetized Mongrel dog at 25 mg/kg, iv in presence of Priscol; type: functional, organism-based; set-up: dose 25 mg/kg; settings: Canis lupus familiaris
[3] = system: Canis familiaris; test: Increase in carotid blood pressure in anesthetized Mongrel dog at 25 mg/kg, iv in presence of adrenaline; type: functional, organism-based; set-up: dose 25 mg/kg; settings: Canis lupus familiaris
[4] = system: Mus musculus; test: Effect on gross behavioral activity in Swiss albino mouse assessed as CNS depression at 100 mg/kg, ip using smoked drum; type: functional, organism-based; set-up: dose 100 mg/kg; settings: Central nervous system
[5] = system: Mus musculus; test: Effect on gross behavioral activity in Swiss albino mouse assessed as CNS depression at 200 mg/kg, ip using smoked drum; type: functional, organism-based; set-up: dose 200 mg/kg; settings: Central nervous system
[6] = system: Mus musculus; test: Effect on gross behavioral activity in Swiss albino mouse assessed as CNS depression at 300 mg/kg, ip using smoked drum; type: functional, organism-based; set-up: dose 300 mg/kg; settings: Central nervous system
[7] = system: Mus musculus; test: Effect on gross behavioral activity in Swiss albino mouse assessed as ptosis at 100 mg/kg, ip using smoked drum; type: functional, organism-based; set-up: dose 100 mg/kg
[8] = system: Mus musculus; test: Effect on gross behavioral activity in Swiss albino mouse assessed as sedation at 100 mg/kg, ip using smoked drum; type: functional, organism-based; set-up: dose 100 mg/kg
[9] = system: Mus musculus; test: Effect on gross behavioral activity in Swiss albino mouse assessed as decrease in motor activity at 100 mg/kg, ip using smoked drum; type: functional, organism-based; set-up: dose 100 mg/kg
[10] = system: Mus musculus; test: Effect on gross behavioral activity in Swiss albino mouse assessed as ptosis at 200 mg/kg, ip using smoked drum; type: functional, organism-based; set-up: dose 200 mg/kg
[11] = system: Mus musculus; test: Effect on gross behavioral activity in Swiss albino mouse assessed as sedation at 200 mg/kg, ip using smoked drum; type: functional, organism-based; set-up: dose 200 mg/kg
[12] = system: Mus musculus; test: Effect on gross behavioral activity in Swiss albino mouse assessed as decrease in motor activity at 200 mg/kg, ip using smoked drum; type: functional, organism-based; set-up: dose 200 mg/kg
[13] = system: Mus musculus; test: Effect on gross behavioral activity in Swiss albino mouse assessed as spontaneous motor activity at 200 mg/kg, ip after 45 mins using smoked drum; type: functional, organism-based; set-up: dose 200 mg/kg
[14] = system: Mus musculus; test: Effect on gross behavioral activity in Swiss albino mouse assessed as spontaneous motor activity at 5 mg/kg, ip after 45 mins using smoked drum; type: functional, organism-based; set-up: dose 5 mg/kg
[15] = system: Rattus norvegicus; test: Increase in pentobarbital-induced sleeping time in Wistar albino rat administered 30 mins before pentobarbital challenge relative to control; type: functional
[16] = system: Canis familiaris; test: Increase in carotid blood pressure in anesthetized Mongrel dog at 25 mg/kg, iv; type: functional, organism-based; set-up: dose 25 mg/kg; settings: Canis lupus familiaris
[17] = system: Canis familiaris; test: Increase in intestinal movement in anesthetized Mongrel dog at 25 mg/kg, iv; type: functional, organism-based; set-up: dose 25 mg/kg; settings: Canis lupus familiaris

| SMILES | Activity [1] | Activity [2] | Activity [3] | Activity [4] | Activity [5] | Activity [6] | Activity [7] | Activity [8] | Activity [9] | Activity [10] | Activity [11] | Activity [12] | Activity [13] | Activity [14] | Activity [15] [%] | Activity [16] | Activity [17] |
| --- | --- | --- | --- | --- | --- | --- | --- | --- | --- | --- | --- | --- | --- | --- | --- | --- | --- |
| COc1c(O[C@@H]2O[C@H](CO)[C@@H](O)[C@H](O)[C@H]2O)cc2oc3cc(O[C@@H]4O[C@H](CO)[C@@H](O)[C@H](O)[C@H]4O)c(CC=C(C)C)c(O)c3c(=O)c2c1CC=C(C)C | Active | Active | Active | Active | Active | Active | Active | Active | Active | Active | Active | Active | Active | Active | 53.81 | Active | Active |
| C[C@H](N)Cc1ccccc1 |  |  |  |  |  |  |  |  |  |  |  |  |  | Active |  |  |  |
| CN(C)CCCN1c2ccccc2Sc2ccc(Cl)cc21 |  |  |  |  |  |  |  |  |  |  |  |  |  | Active |  |  |  |
